Test results reported in patent publication US20240299335A1, “SHELF-STABLE FORMULATIONS OF BENZOYL PEROXIDE AND METHODS OF PRODUCING SAME” (BLUE HILL TECHNOLOGIES LLC, priority 2022, published 2024).
“Also recorded” adds a separate entry of the source.

What was measured:
Format in all cases: physicochemical
[1] = Effect of antioxidants on benzene levels in 10% w/v benzoyl peroxide formulations (headspace GC-MS); conditions: 10% w/v benzoyl peroxide plus antioxidant
Text: Agilent 7890B Gas Chromatography (GC) system equipped with 7697A headspace autosampler coupled with 5977B Mass Selective Detector (MS) was used for sample analysis, and a DB-Select 624 UI, 60 m×0.32 mm×1.8 μm GC column (Agilent Technology, Santa Clara, CA) was used to separate benzene from other compounds. Dimethyl sulfoxide (DMSO, GC Headspace Grade) was used for sample preparation (Thermo Fisher Scientific, Waltham, MA). All certified reference standards, solution, and buffer reagents including sodium citrate dihydrate, citric acid, tris, and glycerol were sourced from Sigma-Aldrich, St. Louis, MO.
For benzoyl peroxide stability studies in glycerol, benzoyl peroxide was prepared in a stock suspension of 20% w/v in glycerol and mixed 1:1 with 20% w/v suspensions or v/v solutions of antioxidants in glycerol. For pH experiments, the same stock suspension of benzoyl peroxide was mixed 1:1 with a 50% glycerol solution with 200 mM buffering agent (Citrate buffer pH 3.0, Tris Buffer pH 7.0, or Tris Buffer pH 9.0) for final 75% glycerol solution. The final volume of all reactions was 100 μL in GC headspace vials with 10% solution benzoyl peroxide (10 mg) and 10% antioxidant or 100 mM buffering agent. Vials were immediately crimp sealed for incubation. For analysis, 4.9 mL of DMSO was added to make up the final volume to approximate 5 mL, crimp sealed, and gently vortexed to mix.
Benzene standard was diluted in DMSO for an 11-point calibration ranging from 10 ng/vial to 100 μg/vial. The coefficient of determination R^2 were greater than 0.999. Five (5) mL of DMSO was used for negative control samples.
Benzoyl peroxide products in original packaging were incubated for up to one month at 25° C., 37° C., or 50° C. and sampled periodically. Benzoyl peroxide and products with antioxidant additions or buffering agent additions were prepared and incubated in crimp sealed GC headspace vials.
The method USP <467> Residual Solvents Procedure A was modified from flame ionization detection (FID) to mass spectrometry (MS) detection for benzene in benzoyl peroxide products. The gas chromatography (GC) methods were also modified to allow shorter run time and the method was validated for addition of up to 500 mg benzoyl peroxide product or […] glycerol. Identification of benzene was based on the retention time matching to certified reference standards and mass spectral m/z matching to benzene. Lower limit of detection (LLOD) was 10 ng (equivalent to 0.02 ppm in hand benzoyl peroxide products) and LLOQ was 25 μg. The measurement uncertainty was determined to be 20%.
10% w/v benzoyl peroxide formulations were prepared. […]

[2] = Effect of antioxidants on benzene levels in FDA-approved benzoyl peroxide drug products (headspace GC-MS); conditions: antioxidant added to commercial drug products; 50° C. for 2 days; FIG. 5
Text: (§1) The method USP <467> Residual Solvents Procedure A was modified from flame ionization detection (FID) to mass spectrometry (MS) detection for benzene in benzoyl peroxide products. […] Identification of benzene was based on the retention time matching to certified reference standards and mass spectral m/z matching to benzene.

[3] = Effect of solvents on benzene levels in 10% w/v benzoyl peroxide formulations (headspace GC-MS); conditions: 10% benzoyl peroxide in the solvent; 37° C. for 10 days; compared to glycerol or NMP; FIG. 8
Experimental: as §1
10% w/v benzoyl peroxide formulations were prepared. […] Benzene levels in each formulation were tested at various time points according to the protocols described in Example 1.

[4] = Benzene levels formed by crystalline benzoyl peroxide on incubation (headspace GC-MS); conditions: incubated at 50° C. for up to 12 days; FIG. 11
Text: as §1

[5] = 37° C. for up to two weeks, FIG. 3
[6] = 50° C. for up to two weeks, FIG. 4

Row | SMILES | levels of benzene formed in the formulations [1, 5] | levels of benzene formed in the formulations [1, 6] | levels of benzene formed in two FDA-approved drug products with added antioxidant [2] | levels of benzene formed in the formulations [3] | further results
1 | Cc1cc(C(C)(C)C)c(O)c(C(C)(C)C)c1 [BHT, butylated hydroxytoluene] | reduced the levels of benzene; also recorded: most dramatic reduction | reduced the levels of benzene; also recorded: most dramatic reduction | reduce the degradation of benzoyl peroxide to benzene |  | 
2 | CC(=O)Oc1c(C)c(C)c2c(c1C)CCC(C)(CCC[C@H](C)CCC[C@H](C)CCCC(C)C)O2 (stereo partly drawn) [vitamin E acetate] | reduced the levels of benzene | reduced the levels of benzene |  |  | 
3 | O [water] |  |  |  | most dramatic reduction in, or complete prevention of, benzene levels | 
4 | CC(C)(C)c1cc(O)ccc1O [TBHQ, tert-butyl hydroquinone] |  |  | reduce the degradation of benzoyl peroxide to benzene |  | 
5 | O=C(OOC(=O)c1ccccc1)c1ccccc1 [crystalline benzoyl peroxide, benzoyl peroxide] |  |  |  |  | levels of benzene formed [4]: may be protected from forming benzene levels
6 | C[S+](C)[O-] [DMSO, dimethylsulfoxide] |  |  |  | most dramatic reduction in, or complete prevention of, benzene levels | 
